PubChem BioAssay (NCI)
Several values for one entry are separate records, joined by “and”; a condition that tells them apart may be missing. Identical values can stand only once.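 Briefly, cells in 96-well plates were exposed to five compound concentrations for 48 h, and endpoints were estimated by linear interpolation. GI50: concentration for 50% inhibition of growth. TGI denotes the concentration required for complete inhibition of growth.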

Assays:
Assay in all cases: NCI-60 cell line screen, 48 h
SK-OV-3 ovarian = tested on: SK-OV-3 ovarian
HOP-92 NSCLC = tested on: HOP-92 NSCLC
UO-31 renal = tested on: UO-31 renal
786-0 renal = tested on: 786-0 renal
SK-MEL-2 melanoma = tested on: SK-MEL-2 melanoma
K-562 leukemia = tested on: K-562 leukemia
SF-295 CNS = tested on: SF-295 CNS
KM12 colon = tested on: KM12 colon
MOLT-4 leukemia = tested on: MOLT-4 leukemia
MDA-MB-231 breast = tested on: MDA-MB-231 breast

Structure (SMILES) | GI50 (SK-OV-3 ovarian) | TGI (SK-OV-3 ovarian) | GI50 (HOP-92 NSCLC) | TGI (HOP-92 NSCLC) | GI50 (UO-31 renal) | TGI (UO-31 renal) | GI50 (786-0 renal) [µM] | TGI (786-0 renal) [µM] | GI50 (SK-MEL-2 melanoma) | TGI (SK-MEL-2 melanoma) | GI50 (K-562 leukemia) | TGI (K-562 leukemia) | GI50 (SF-295 CNS) | TGI (SF-295 CNS) | GI50 (KM12 colon) | TGI (KM12 colon) | GI50 (MOLT-4 leukemia) | TGI (MOLT-4 leukemia) | GI50 (MDA-MB-231 breast) [µM] | TGI (MDA-MB-231 breast) [µM]
N/C(=N\OC(=O)c1ccccc1)C(C(=O)NOC(=O)c1ccccc1)C1CCCCC1 (stereo not drawn) | 15.8 µM | 29.7 µM | 2.39 µM | 7.72 µM | 2.01 µM | 3.96 µM | 13.9 | 26.9 | 12.5 µM | 26.6 µM | 3.08 µM | 10.6 µM | 2.11 µM | 5.73 µM | 11.4 µM | 25.1 µM | 6.62 µM | 49.8 µM | 18.1 | 70.9
CS(=O)(=O)c1ccc(Cl)c([N+](=O)[O-])c1 | 18.4 µM | 32.3 µM | 18.3 µM | 35 µM | 1.97 µM | 4.04 µM | 19.9 | 36.8 | 23.2 µM | 41.7 µM | 6.78 µM | 66.5 µM | 18.5 µM | 37.9 µM | 14.8 µM | 29.6 µM | 28.5 µM | 69.5 µM | 16.1 | 31.1
CCc1nc(N)nc(N)c1-c1ccc([N+](=O)[O-])c(NCc2ccccc2)c1 | – | > 55.1 µM | – | 25.9 µM | – | 22.2 µM | – | 29.8 | – | 50.2 µM | – | 20.7 µM | – | 28.4 µM | – | 49.2 µM | – | 26.6 µM | – | 38.1
C/C(=N\O)c1ccc(Nc2cc(-n3nnc4ccccc43)nc3ccccc23)cc1 | 24.1 µM | > 62.3 µM | 14.4 µM | 46.5 µM | 6.79 µM | 26.6 µM | 4.89 | 13.3 | 15.6 µM | 47.6 µM | 5.32 µM | > 100 µM | 10.3 µM | > 100 µM | 2.98 µM | 10.9 µM | 2.85 µM | 15.4 µM | 2.53 | 9.37
CSc1ccc(/C=C2\CNC/C(=C\c3ccc(SC)cc3)C2=O)cc1 | 77.8 µg/mL | > 170 µM and 148 µg/mL | 31.9 µM and 27 µg/mL | 233 µM and 83.2 µg/mL | 150 µg/mL | > 371 µM and 150 µg/mL | – | 153 | 150 µg/mL | > 371 µM and 150 µg/mL | 150 µg/mL | > 371 µM and 150 µg/mL | 9.25 µg/mL | > 150 µM and 33.5 µg/mL | 150 µg/mL | > 371 µM and 150 µg/mL | 150 µg/mL | > 371 µM and 150 µg/mL | – | 362
Nc1c(C(=O)Nc2ccc([As](=O)(O)O)cc2)cnc2nnnn12 | – | > 100 µM | – | > 100 µM | – | > 100 µM | – | > 100 | – | > 100 µM | – | > 100 µM | – | > 100 µM | – | > 100 µM | – | > 100 µM | – | > 100
CC(O)CNC1=CC(=O)C(=O)c2ccccc21 (stereo not drawn) | – | > 100 µM | – | 53.3 µM | – | 34 µM | – | 32.2 | – | 32.9 µM | – | > 100 µM | – | 27 µM | – | 56.2 µM | – | 59.9 µM | – | 73.6
